Measurements published in patent US6583179B2, “Substituted aminoalkylamide derivatives as antagonists of follicle stimulating hormone” (Ortho-McNeil Pharmaceutical, Inc., priority 1999, dated 2003).

Legend:
Rat Granulosa Cell = experiment: Rat granulosa cell FSH-stimulated cAMP production; assay type: cell-based; details: inhibition of cAMP produced by EC70 dose of FSH (1.4 nM), maximum concentration 50 μM
Experimental: Insulin, diethylstilbesterol, androstenedione, forskolin and DMSO were purchased from Sigma (St. Louis, Mo.). Fungizone, penicillin/streptomycin, charcoal-treated heat inactivated fetal bovine serum (CT-HI-FBS) and Dulbecco's Modified Eagle Medium:Hams F12 medium containing 15 mM Hepes and L-glutamine (DMEM:F12), were purchased from GIBCO BRL (Grand Island, N.Y.).
Ovine FSH (NIADDK-oFSH-17; FSH potency=20 NIH-FSH-S1 U/mg; LH contamination=0.04 times NIH-LH-S1) was received from Ogden Bioservices Corporation, Rockville, Md. Human FSH (Fertinex), was purchased from Serono Pharmaceutical (Framingham, Mass.). Human chorionic gonadotropin (hCG) was purchased from Sigma (St Louis, Mo.).
Immature intact female rats (Wistar-derived strain; 21-23 days old) were implanted with a single pellet (Innovative Research of America, Sarasota, Fla.) containing 2.5 mg diethylstilbesterol (DES) for 3 days. On the third day, the animals were sacrificed, the ovaries were removed, and the granulosa cells were isolated essentially as described in Haynes-Johnson et al., Biol. Reprod., 61 (1), 147-153, (1999). Granulosa cells were plated at a density of 300,000 cells per ml with 0.2 ml added to each well of 96 well culture dishes (Corning, N.Y.). Cultures were incubated at 37° C. in a humidified incubator (95% air, 5% CO2) overnight (18 hours).
Androstenedione (100,000X) was prepared by dissolving the steroid in 100% ethanol, and was subsequently diluted to a final concentration of 10^−7M containing 0.1% ethanol in assay media. The assay media was serum-free, DES-free, insulin-free media, prepared by adding 5 mL pen-strep,1.5 mL fungizone and 5 μL androstenedione to 493.5 mL DMEM F-12 media.
(§1) Test compounds were solubilized in 30% dimethyl sulfoxide (DMSO) at a concentration of 10 mM before diluting to appropriate concentrations in assay medium. The final DMSO concentration in the treated cells and in the control cells was 0.75%.
Test plates containing the granulosa cells were preincubated for 18 hours at 37° C. with 95% air, 5% CO2, 100% humidity. The spent media was removed and 50 μl assay media (DMEM:F12) containing 2 mM IBMX (3-isobutyl-1-methyl-xanthine) was added to the cells. Compounds (25 μl) in the appropriate concentration were added followed 5 minutes later by an EC70 dose of FSH (25 μl; 50 ng/ml; 1.4 nM). After 30 minutes @ 22.5° C. (room temperature) the reaction was terminated by addition of 25 μL 0.5 N hydrochloric acid to each well. The amount of cAMP produced was measured by radioimmunoassay in a FlashPlate (DuPont, Boston, Mass.). To each flash plate 60 μL flash plate buffer was added followed by 40 μL acidified cell sample or cAMP standard, followed with the addition of 100 μl ^125l-cAMP trace. The FlashPlates were sealed, incubated overnight @ room temperature, and counted in a Packard TopCount (Packard Instrument Co., Meriden, Conn.). The cAMP radioimmunoassay results were calculated using DPM conversion and log-logit transformation of % binding (Excel program).

human FSH receptor = target: T1, human FSH receptor (Homo sapiens, UniProt P23945); experiment: hFSHR CHO cAMP assay (rhFSHR-cLUC cells, FSH-stimulated cAMP, radioimmunoassay); assay type: cell-based; details: inhibition of cAMP produced by EC70 dose of FSH (4.85 nM); maximum concentration 50 μM
T1 construct: expressed in transfected cells; host or cells: Chinese Hamster Ovary cells (K-1; ATCC), line rhFSHR-cLUC
T1 sequence (P23945 18-695): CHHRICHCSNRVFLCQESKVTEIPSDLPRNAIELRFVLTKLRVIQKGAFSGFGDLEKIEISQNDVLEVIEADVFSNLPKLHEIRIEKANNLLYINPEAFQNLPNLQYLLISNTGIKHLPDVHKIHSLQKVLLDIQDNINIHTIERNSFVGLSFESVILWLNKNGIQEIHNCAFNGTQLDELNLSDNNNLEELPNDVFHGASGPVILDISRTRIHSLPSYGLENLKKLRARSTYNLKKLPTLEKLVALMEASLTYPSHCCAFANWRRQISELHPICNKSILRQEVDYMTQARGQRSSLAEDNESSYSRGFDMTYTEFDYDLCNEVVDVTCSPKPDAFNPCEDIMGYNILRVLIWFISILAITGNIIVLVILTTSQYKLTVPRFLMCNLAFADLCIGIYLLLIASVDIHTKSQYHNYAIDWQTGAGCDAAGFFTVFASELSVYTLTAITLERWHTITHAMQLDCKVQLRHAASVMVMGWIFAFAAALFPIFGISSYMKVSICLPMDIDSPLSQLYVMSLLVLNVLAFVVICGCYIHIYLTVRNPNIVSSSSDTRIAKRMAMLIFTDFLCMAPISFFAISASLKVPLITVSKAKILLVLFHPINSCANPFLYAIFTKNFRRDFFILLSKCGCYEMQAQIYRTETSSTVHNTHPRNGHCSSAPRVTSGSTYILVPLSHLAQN
Excerpt: Minimum Essential Medium-Alpha (MEM-alpha), fetal bovine serum (FBS), penicillin, streptomycin, geneticin, trypsin-EDTA, Hanks' Balanced Salt Solution (no Calcium chloride, Magnesium chloride, Magnesium sulfate, or phenol red; Ca-Mg free HBSS) were purchased from Gibco BRL (Gaithersburg, Md.). The cells used for the FSH bioassay (rhFSHR-cLUC) were Chinese Hamster Ovary cells (K-1; ATCC) stably transformed with human FSH receptor (pSVK-FSHr) and a cAMP luciferase reporter gene (responsive CGα-180LUC). Follicle Stimulating Hormone (Metrodin; Fertinex) was purchased from Serono, Ltd. (Norwell, Mass.).
The rhFSHR-cLUC cell cultures were maintained in MEM-Alpha supplemented with 10% heat-inactivated FBS (HIFBS), 100 U/ml penicillin, 100 μg/mL streptomycin, and included 0.1 g/L geneticin for stable cell selection.
Forty-eight hours after the cells were plated in sterile 96-well culture plates (Corning, Corning, N.Y.) the spent media was removed and 50 μl assay media (modified growth media with 2% HIFBS) containing 2 mM IBMX (3-isobutyl-1-methyl-xanthine) was added to the cells. Compounds (25 μl) in the appropriate concentration were added followed 5 minutes later by an EC70 dose of FSH (25 μl; 160 ng/ml; 4.85 nM). After 10 minutes @ 22.5° C. (room temperature) the reaction was terminated by addition of 25 μL 0.5 N hydrochloric acid to each well. The amount of cAMP produced was measured by radioimmunoassay in a FlashPlate (DuPont, Boston, Mass.). To each flash plate 60 μL flash plate buffer was added followed by 40 μL acidified cell sample or cAMP standard, followed with the addition of 100 μl ^125l-cAMP trace. The FlashPlates were sealed, incubated overnight @ room temperature, and counted in a Packard TopCount (Packard Instrument Co., Meriden, Conn.). The cAMP radioimmunoassay results were calculated using DPM conversion and log-logit transformation of % binding (Excel program).
as §1
For individual experiments, a set of samples were tested including a vehicle control (assay buffer), a reference compound (hFSH) at a range of concentrations designed to elicit a minimal to maximal response, and several concentrations of test compounds together with an EC70 concentration of standard (hFSH challenge). Each compound was performed in duplicates for the primary evaluation and quadruplicates for the dose-ranging experiments. The cAMP radioimmunoassay raw data (pmol) were calculated to provide average pmol cAMP produced/ml and the percent inhibition was calculated as shown below.
% Inh=[1−(Avg.pmoltest compound+standard)/(Avg.pmolstandard)]×100
EC50 values were calculated from an analysis of the concentration-inhibition data using a linear analysis of the data transformed to a log-logit format.

EC50 (Rat Granulosa Cell) [nM]	EC50 (human FSH receptor) [nM]	SMILES
180	420	COc1ccccc1CCN(CC(=O)NCC1CCC(CN)CC1)S(=O)(=O)c1ccc(-c2ccccc2OC)cc1 (stereo not shown) [Compound 33]
1450	4950	COc1ccccc1CN(CC(=O)NCC1CCC(CN)CC1)S(=O)(=O)c1ccc(-c2cnc(SC)nc2)s1 (stereo not shown) [Compound 73]
8910	34500	COc1ccccc1CCN(CC(=O)NC1CCC(N)CC1)S(=O)(=O)c1ccc(-c2ccccc2C)cc1 (stereo not shown) [Compound 94]
8970	9780	COc1ccccc1CCN(CC(=O)NCc1ccc(CN)cc1)S(=O)(=O)c1ccc(Cl)s1 [Compound 114]
60	80	C[C@@H](CN(CC(=O)NCc1ccc(CN)cc1)S(=O)(=O)c1ccc(-c2cccc(F)c2)cc1)c1ccccc1 [Compound 203]
40	60	C[C@H](CN(CC(=O)NCc1ccc(CN)cc1)S(=O)(=O)c1ccc(-c2ccccc2Cl)cc1)c1ccccc1 [Compound 208]
600	550	COc1ccccc1CCN(CC(=O)NCc1ccc(CN)cc1)S(=O)(=O)c1ccc(-c2ccccc2C)s1 [Compound 272]
80	270	Cc1ccccc1-c1ccc(S(=O)(=O)N(CC(=O)NCC2CCCC(CN)C2)C[C@H](C)c2ccccc2)cc1 (stereo partly shown) [Compound 384]

Continued, compound first:

SMILES	EC50 (Rat Granulosa Cell) [nM]	EC50 (human FSH receptor) [nM]
COc1ccccc1CCN(CC(=O)NCc1ccc(CN)cc1)S(=O)(=O)c1ccc(-c2cccc(F)c2)cc1 [Compound 14]	1560	740
COc1cccc(-c2ccc(S(=O)(=O)N(CCc3ccccc3OC)CC(=O)NCc3ccc(CN)cc3)cc2)c1 [Compound 16]	510	1130
COc1cccc(CN(CC(=O)NCC2CCC(CN)CC2)S(=O)(=O)c2ccc(-c3cccc(OC)c3)cc2)c1 (stereo not shown) [Compound 24]	1070	2330
COc1ccccc1CCN(CC(=O)NCC1CCC(CN)CC1)S(=O)(=O)c1ccc(-c2cccc(C(F)(F)F)c2)cc1 (stereo not shown) [Compound 29]	2060	3090
COc1ccccc1CCN(CC(=O)NCC1CCC(CN)CC1)S(=O)(=O)c1ccc(-c2ccccc2Cl)cc1 (stereo not shown) [Compound 31]	1970	910
COc1ccccc1CCN(CC(=O)NCC1CCC(CN)CC1)S(=O)(=O)c1ccc(-c2ccccc2C)cc1 (stereo not shown) [Compound 32]	160	310
